In brackets after ≈: the same amount, converted by molar mass. Activity calls are given as the source filed them. The rule behind the calls is not given here.
Legend:
Staphylococcus aureus [1] = experiment: Antimicrobial activity against methicillin-resistant Staphylococcus aureus 003; assay type: functional
Enterococcus faecalis = experiment: Antimicrobial activity against vancomycin resistant Enterococcus faecalis ATCC 51299; assay type: functional
Staphylococcus aureus [2] = experiment: Antimicrobial activity against methicillin-resistant Staphylococcus aureus 011; assay type: functional
Staphylococcus aureus [3] = experiment: Antimicrobial activity against Staphylococcus aureus 29; assay type: functional
Staphylococcus aureus [4] = experiment: Antimicrobial activity against Staphylococcus aureus 31; assay type: functional
Staphylococcus aureus [5] = experiment: Antimicrobial activity against Staphylococcus aureus 10; assay type: functional
Candida albicans = experiment: Antimicrobial activity against fluconazole-resistant Candida albicans; assay type: functional
[6] = Hemolytic activity against Mianyang red blood cells (unknown origin); assay type: toxicity, cell-based, RBC
[7] = Selectivity index, ratio of HC50 for hemolytic activity against Mianyang red blood cells (unknown origin) to MIC for antimicrobial activity against methicillin resistant Staphylococcus aureus 003; assay type: toxicity, cell-based, RBC; conditions: read-out: Selectivity Index
Pseudomonas aeruginosa = experiment: Antimicrobial activity against Pseudomonas aeruginosa; assay type: functional
Escherichia coli = experiment: Antimicrobial activity against Escherichia coli; assay type: functional
Staphylococcus aureus [8] = experiment: Antibacterial activity against methicillin-resistant Staphylococcus aureus assessed as inhibition of bacterial growth at 1 times of MIC; assay type: functional, organism-based
Staphylococcus aureus [9] = experiment: Bactericidal activity against methicillin-resistant Staphylococcus aureus; assay type: functional, organism-based
Staphylococcus aureus [10] = experiment: Bactericidal activity against methicillin-resistant Staphylococcus aureus assessed as eradication of bacterial growth at 4 times of MIC measured within 6 hrs relative to control; assay type: functional
Staphylococcus aureus [11] = experiment: Antibacterial activity against methicillin-resistant Staphylococcus aureus at sub-MIC measured after 20 days of continuous passage; assay type: functional, organism-based; conditions: time 20.0 day
HEK-293T = experiment: Cytotoxicity against HEK293T cells at 64 microg/ml by MTT assay; assay type: toxicity, cell-based; conditions: human, dose 64 µg/ml
Staphylococcus aureus [12] = experiment: Synergistic antibacterial activity against methicillin-resistant Staphylococcus aureus assessed as fractional inhibitory concentration index in presence of fluconazole; assay type: functional
Staphylococcus aureus [13] = experiment: Synergistic antibacterial activity against methicillin-resistant Staphylococcus aureus assessed as fractional inhibitory concentration index in presence of ceftriaxone; assay type: functional
Staphylococcus aureus [14] = experiment: Synergistic antibacterial activity against methicillin-resistant Staphylococcus aureus assessed as fractional inhibitory concentration index in presence of ampicillin; assay type: functional
Staphylococcus aureus [15] = experiment: Synergistic antibacterial activity against methicillin-resistant Staphylococcus aureus assessed as fractional inhibitory concentration index in presence of cefoxitin; assay type: functional
Staphylococcus aureus [16] = experiment: Synergistic antibacterial activity against methicillin-resistant Staphylococcus aureus assessed as fractional inhibitory concentration index in presence of streptomycin; assay type: functional
Staphylococcus aureus [17] = experiment: Synergistic antibacterial activity against methicillin-resistant Staphylococcus aureus assessed as fractional inhibitory concentration index in presence of chlorpromazine; assay type: functional
Staphylococcus aureus [18] = experiment: Synergistic antibacterial activity against methicillin-resistant Staphylococcus aureus assessed as fractional inhibitory concentration index in presence of azithromycin; assay type: functional
Staphylococcus aureus [19] = experiment: Synergistic antibacterial activity against methicillin-resistant Staphylococcus aureus assessed as fractional inhibitory concentration index in presence of lincomycin hydrochloride; assay type: functional
Staphylococcus aureus [20] = experiment: Synergistic antibacterial activity against methicillin-resistant Staphylococcus aureus assessed as fractional inhibitory concentration index in presence of chloramphenicol; assay type: functional
Staphylococcus aureus [21] = experiment: Synergistic antibacterial activity against methicillin-resistant Staphylococcus aureus assessed as fractional inhibitory concentration index in presence of vancomycin; assay type: functional
Staphylococcus aureus [22] = experiment: Antibiofilm activity against methicillin-resistant Staphylococcus aureus assessed as decrease in biofilm density at 1 to 8 times of MIC incubated for 24 hrs by fluorescence microscopic analysis; assay type: functional, organism-based
Staphylococcus aureus [23] = experiment: Antibiofilm activity against methicillin-resistant Staphylococcus aureus assessed as decrease in biofilm biomass at 1 to 8 times of MIC by crystal violet staining based analysis; assay type: functional, organism-based
Staphylococcus aureus [24] = experiment: Selectivity ratio of MBEC for methicillin-resistant Staphylococcus aureus to MIC for methicillin resistant Staphylococcus aureus; assay type: functional
Staphylococcus aureus [25] = experiment: Antibiofilm activity against methicillin-resistant Staphylococcus aureus assessed as reduction in number of live cells at 8 times of MIC (reference value: 7.79 log10CFU/ml); assay type: functional
Staphylococcus aureus [26] = experiment: Antibiofilm activity against methicillin-resistant Staphylococcus aureus assessed as inhibition of biofilm formation at 2 times of MIC by crystal violet staining based analysis relative to control; assay type: functional
Cell membrane [27] = experiment: Disruption of cell membrane integrity in methicillin-resistant Staphylococcus aureus assessed as increase in PI fluorescence at 2 to 8 times of MIC by PI staining based fluorescence analysis; assay type: subcellular
Mitochondrial membrane = experiment: Induction of mitochondrial membrane depolarization in methicillin-resistant Staphylococcus aureus assessed as increase in fluorescence intensity at 1 to 8 times of MIC by DiSC3(5) staining based analysis; assay type: cell membranes
Cell membrane [28] = experiment: Disruption of cell membrane integrity in Candida albicans; assay type: subcellular
Cell membrane [29] = experiment: Disruption of cell membrane integrity in methicillin-resistant Staphylococcus aureus assessed as nucleic acid leakage by absorbance based analysis; assay type: subcellular
Cell membrane [30] = experiment: Disruption of cell membrane integrity in methicillin-resistant Staphylococcus aureus assessed as increase in ROS level at 2 to 8 times of MIC incubated for 1 hrs; assay type: subcellular
Staphylococcus aureus [31] = experiment: Antimicrobial activity against methicillin-resistant Staphylococcus aureus in presence of peptidoglycan; assay type: functional, organism-based
Staphylococcus aureus [32] = experiment: Antimicrobial activity against methicillin-resistant Staphylococcus aureus in presence of cardiolipin; assay type: functional, organism-based
Staphylococcus aureus [33] = experiment: Antimicrobial activity against methicillin-resistant Staphylococcus aureus in presence of phosphatidylethanolamine; assay type: functional, organism-based
Cell membrane [34] = experiment: Disruption of cell membrane integrity in methicillin-resistant Staphylococcus aureus assessed as cell rupture at 2 to 4 times of MIC by scanning electron microscopic analysis; assay type: subcellular
Cell membrane [35] = experiment: Disruption of cell membrane integrity in methicillin-resistant Staphylococcus aureus assessed as cell deformation at 2 to 4 times of MIC by scanning electron microscopic analysis; assay type: subcellular
DNA [36] = experiment: Binding affinity to methicillin-resistant Staphylococcus aureus DNA assessed as inhibition of DNA migration at 75 microg/ml by electrophoretic analysis; assay type: nucleic-acid assay; conditions: dose 75.0 µg/ml
Staphylococcus aureus [37] = experiment: Antibacterial activity against methicillin-resistant Staphylococcus aureus in presence of DNA; assay type: functional, organism-based
DNA [38] = experiment: Binding affinity to methicillin-resistant Staphylococcus aureus DNA assessed as effect on helical structure by measuring change in positive and negative peaks at 10 to 40 microg/ml by CD spectra; assay type: nucleic-acid assay; conditions: dose 10-40 µg/ml
DNA [39] = experiment: Binding affinity to methicillin-resistant Staphylococcus aureus DNA assessed as change in DNA conformation by UV absorption based analysis; assay type: nucleic-acid assay
DNA [40] = experiment: Binding affinity to […] methicillin-resistant Staphylococcus aureus DNA assessed as inhibition of DNA migration by electrophoretic analysis; assay type: nucleic-acid assay
DNA [41] = experiment: Binding affinity to methicillin-resistant Staphylococcus aureus DNA assessed as decrease in fluorescence by PI staining based analysis; assay type: nucleic-acid assay
DNA [42] = experiment: Binding affinity to methicillin-resistant Staphylococcus aureus DNA minor groove assessed as decrease in fluorescence by DAPI staining based analysis; assay type: nucleic-acid assay

For CC1(C)CC[C@]2(C(=O)O)CC[C@]3(C)C(=CC[C@@H]4[C@@]5(C)CC[C@H](OCC(O)CCCNC(=N)N)C(C)(C)[C@@H]5CC[C@]43C)[C@@H]2C1 (stereo partly drawn), the MIC (Staphylococcus aureus [1]) was over 2 µg/mL, the MIC (Enterococcus faecalis) was 2 µg/mL (≈ 3.33 µM) and the MIC (Staphylococcus aureus [2]) was 2 µg/mL (≈ 3.33 µM). For the same molecule, the MIC (Staphylococcus aureus [3]) was 4 µg/mL (≈ 6.67 µM), the MIC (Staphylococcus aureus [4]) was 2 µg/mL (≈ 3.33 µM) and the MIC (Staphylococcus aureus [5]) was 2 µg/mL (≈ 3.33 µM). For the same molecule, the MIC (Candida albicans) was 2 µg/mL (≈ 3.33 µM), the HC50 [6] was 779 µg/mL and the selectivity ratio [7] was under 390. For the same molecule, the MIC (Pseudomonas aeruginosa) was over 64 µg/mL, the MIC (Escherichia coli) was over 64 µg/mL and the Activity (Staphylococcus aureus [8]) was “Active”. For the same molecule, the Activity (Staphylococcus aureus [9]) was “Active”, the Activity (Staphylococcus aureus [10]) was 99.99% and the Activity (Staphylococcus aureus [11]) was “Active”. For the same molecule, the Activity (HEK-293T) was “Non-Toxic”, the “fractional inhibitory concentration index (FICI)” value (Staphylococcus aureus [12]) was “<=0.5” and the “fractional inhibitory concentration index (FICI)” value (Staphylococcus aureus [13]) was “<=0.5”. For the same molecule, the “fractional inhibitory concentration index (FICI)” value (Staphylococcus aureus [14]) was “<=0.5”, the “fractional inhibitory concentration index (FICI)” value (Staphylococcus aureus [15]) was “<=0.5” and the “fractional inhibitory concentration index (FICI)” value (Staphylococcus aureus [16]) was 0.25. The “fractional inhibitory concentration index (FICI)” value (Staphylococcus aureus [17]) was “<=0.5”, the “fractional inhibitory concentration index (FICI)” value (Staphylococcus aureus [18]) was “<=0.5” and the “fractional inhibitory concentration index (FICI)” value (Staphylococcus aureus [19]) was “<=0.5”. For the same molecule, the “fractional inhibitory concentration index (FICI)” value (Staphylococcus aureus [20]) was “<=0.5”, the “fractional inhibitory concentration index (FICI)” value (Staphylococcus aureus [21]) was “<=0.5” and the Activity (Staphylococcus aureus [22]) was “Dose-Dependent Effect”. For the same molecule, the Activity (Staphylococcus aureus [23]) was “Active”, the selectivity ratio (Staphylococcus aureus [24]) was 16 and the Activity (Staphylococcus aureus [25]) was 2.7 log10CFU/ml. For the same molecule, the “inhibition (INH)” value (Staphylococcus aureus [26]) was over 80%, the Activity (Cell membrane [27]) was “Active” and the Activity (Mitochondrial membrane) was “Dose-Dependent Effect”. The Activity (Cell membrane [28]) was “Active”, the Activity (Cell membrane [29]) was “Active” and the Activity (Cell membrane [30]) was “Active”. The Activity (Staphylococcus aureus [31]) was “Active”, the Activity (Staphylococcus aureus [32]) was “inactive” and the Activity (Staphylococcus aureus [33]) was “inactive”. For the same molecule, the Activity (Cell membrane [34]) was “Active”, the Activity (Cell membrane [35]) was “Active” and the Activity (DNA [36]) was “Active”. The Activity (Staphylococcus aureus [37]) was “inactive”, the Activity (DNA [38]) was “Active” and the Activity (DNA [39]) was “Active”. For the same molecule, the Activity (DNA [40]) was “Active”, the Activity (DNA [41]) was “Dose-Dependent Effect” and the Activity (DNA [42]) was “inactive”.
